Assay type in all cases: cell-based, human
One test concerns PC3. Description: CCK-8 anti-proliferation assay, PC3. Particulars: mean ± SD; for inhibition at 20 µM: Homo sapiens, PC-3, 20 μM, read-out: Inhibition Rate (%) at 20 μM PC3. Here is the method:
(§1) Human cervical cancer HeLa, human prostate cancer PC3, human colonic carcinoma HCT116, human lung carcinoma A549, human breast cancer MDA-MB-231, mouse melanoma B16, human ovarian cancer SKOV3, human hepatoma Hep3B, and human liver L02 cells were purchased from the Cell Bank of Shanghai Institute of Biochemistry and Cell Biology, Chinese Academy of Sciences (Shanghai, China). The HeLa, A549, B16, PC3, MDA-MB-231, HCT116, and L02 cells were cultured in Dulbecco’s modified Eagle medium (DMEM, Gibco Inc.; Gaithersburg, MD, USA). All cultures were supplied with 10% fetal bovine serum (FBS; YHSM, Beijing, China), 100 IU/mL of penicillin, and 100 μg/mL of streptomycin, and cells were incubated at 37 °C in an atmosphere of 5% CO2.
(§2) A CCK-8 kit (MCE, USA) was used to perform a CCK-8 assay. Cells were plated and grown in the 96-well plates for the indicated period (48 h) in the incubator, followed by an incubation with the CCK-8 solutions for 1–4 h. Subsequently, the absorbance (450 nm) was measured by a microplate reader. The median inhibitory concentration (IC50) was determined from the dose–response curve. Experiments were performed in a triplicate.
For orientation: Tetrazolium assays rely on reduction of a dye to a coloured formazan, in cell work by metabolically active cells.

The next test relates to A549. Description: CCK-8 anti-proliferation assay, A549. As to conditions: mean ± SD; for inhibition at 20 µM: Homo sapiens, A549, 20 μM, read-out: Inhibition Rate (%) at 20 μM A549. How it is done:
as §1, §2

A further test deals with HCT116. Nature of the test: CCK-8 anti-proliferation assay, HCT116. Particulars: mean ± SD; for inhibition at 20 µM: Homo sapiens, HCT-116, 20 μM, read-out: Inhibition Rate (%) at 20 μM HCT116. How it is done: as §1, §2
For the next test, the system named is HeLa. Nature of the test: CCK-8 anti-proliferation assay, HeLa. As to conditions: 20 μM, mean ± SD; for inhibition at 20 µM: Homo sapiens, read-out: Inhibition Rate (%) at 20 μM HeLa. Here is the method: as §1, §2

As for `COc1cc(-c2ccc(C(=O)NCCC(=O)N3CCOCC3)o2)c(OC)c2ccccc12` [Compound 8c, 5-(1,4-Dimethoxynaphthalen-2-yl)-N-(3-morpholino-3-oxopropyl)furan-2-carboxamide], the inhibition (usually the drop in the measured response relative to a control, in per cent) at 20 µM in the test on PC3 came out at 4.65 ± 0.56%; in the test on A549, 14.1 ± 0.32%; in the test on HCT116 it was 4.73 ± 0.47%.
`COc1cc(-c2ccc(/C=C(\C#N)C(=O)N3CC4CCCCC4C3)o2)c(OC)c2ccccc12` (stereo not drawn) [Compound 4f, (E)-3-(5-(1,4-dimethoxynaphthalen-2-yl)furan-2-yl)-2-(octahydro-1H-isoindole-2-carbonyl)acrylonitrile]: the values for the inhibition at 20 µM in the test with PC3 and in the test with HCT116 were 11.8 ± 0.79% and 43.7 ± 0.84%, respectively.
With `COC(=O)c1ccc(C2=CC(=O)c3ccccc3C2=O)o1` [Compound 6a, Methyl 5-(1,4-dioxo-1,4-dihydronaphthalen-2-yl)furan-2-carboxylate], the inhibition at 20 µM was determined as 26.1 ± 0.66% in the test with HeLa, 6.93 ± 0.79% with PC3, 2.15 ± 0.37% in the test with A549 and 17.67 ± 0.06% in the test with HCT116.
For the molecule `N#C/C(=C\c1ccc(C2=CC(=O)c3ccccc3C2=O)o1)C(=O)NC1CCN(Cc2ccccc2)CC1` [Compound 5a, (E)-N-(1-benzylpiperidin-4-yl)-2-cyano-3-(5-(1,4-dioxo-1,4-dihydronaphthalen-2-yl)furan-2-yl)acrylamide], the inhibition at 20 µM in the test with HeLa came to 10.4 ± 0.41%; in the test with PC3, 3.7 ± 0.19%; in the test on A549 it was 13.3 ± 0.17%; in the test with HCT116 it was 8.36 ± 0.26%.
Turning to `COc1cc(-c2ccc(C(=O)NC3CCN(Cc4ccccc4)CC3)o2)c(OC)c2ccccc12` [Compound 8a, N-(1-benzylpiperidin-4-yl)-5-(1,4-dimethoxynaphthalen-2-yl)furan-2-carboxamide], the inhibition at 20 µM worked out at 20.86 ± 0.18% in the test on HeLa, 15.5 ± 0.29% in the test with PC3, 24.1 ± 0.35% in the test on A549 and 12.4 ± 0.15% in the test with HCT116.
Turning to `CC1(C)CC(NC(=O)/C(C#N)=C/c2ccc(C3=CC(=O)c4ccccc4C3=O)o2)CC(C)(C)N1` [Compound 5e, (E)-2-cyano-3-(5-(1,4-dioxo-1,4-dihydronaphthalen-2-yl)furan-2-yl)-N-(2,2,6,6-tetramethylpiperidin-4-yl)acrylamide], the inhibition at 20 µM with HeLa is 29.73 ± 0.07%; in the test on PC3, 19.3 ± 0.28%; in the test with A549, 19.8 ± 0.32%; with HCT116, 5.97 ± 95%.
On to `O=C(NC1CCN(Cc2ccccc2)CC1)c1ccc(C2=CC(=O)c3ccccc3C2=O)o1` [Compound 9a, N-(1-benzylpiperidin-4-yl)-5-(1,4-dioxo-1,4-dihydronaphthalen-2-yl)furan-2-carboxamide], for which the inhibition at 20 µM came out at 42.87 ± 0.22% with HeLa, 2.39 ± 0.09% in the test with PC3, 20.7 ± 0.49% in the test on A549 and 33.71 ± 0.13% in the test on HCT116.
Turning to `COc1cc(-c2ccc(C(=O)NC(C)c3ccccc3)o2)c(OC)c2ccccc12` (stereo not drawn) [Compound 8b, 5-(1,4-Dimethoxynaphthalen-2-yl)-N-(1-phenylethyl)furan-2-carboxamide], the inhibition at 20 µM came to 19.33 ± 0.18% in the test with HeLa, 24.99 ± 0.19% with PC3, 7.87 ± 0.11% in the test with A549 and 2.17 ± 0.02% in the test on HCT116.
On to `COc1cc(-c2ccc(C(=O)Nc3ccc(CN4CCN(C)CC4)c(C(F)(F)F)c3)o2)c(OC)c2ccccc12` [Compound 8h, 5-(1,4-Dimethoxynaphthalen-2-yl)-N-(4-((4-methylpiperazin-1-yl)methyl)-3-(trifluoromethyl)phenyl)furan-2-carboxamide], for which the inhibition at 20 µM in the test with HeLa was 28.47 ± 0.1%; in the test on PC3, 16.5 ± 0.97%; in the test with A549 it was 21.6 ± 0.39%; in the test on HCT116 it was 19.6 ± 0.34%.
In the case of `N#C/C(=C\c1ccc(C2=CC(=O)c3ccccc3C2=O)o1)C(=O)NCCc1cccs1` [Compound 5d, (E)-2-cyano-3-(5-(1,4-dioxo-1,4-dihydronaphthalen-2-yl)furan-2-yl)-N-(2-(thiophen-2-yl)ethyl)acrylamide], the inhibition at 20 µM was determined as 5.61 ± 0.24% with HeLa, 15.5 ± 0.2% in the test with PC3, 17.2 ± 0.35% in the test with A549 and 26.8 ± 0.94% in the test with HCT116.
For `COC(=O)c1ccc(-c2cc(OC)c3ccccc3c2OC)o1` [Compound 6, Methyl 5-(1,4-dimethoxynaphthalen-2-yl)furan-2-carboxylate], in that order: 27 ± 0.32%, 21.6 ± 0.83%, 21.3 ± 0.45% and 16.78 ± 0.07%.
Turning to `COc1cc(-c2ccc(/C=C(\C#N)C(=O)NCCN3CCCC3)o2)c(OC)c2ccccc12` [Compound 4i, (E)-2-cyano-3-(5-(1,4-dimethoxynaphthalen-2-yl)furan-2-yl)-N-(2-(pyrrolidin-1-yl)ethyl)acrylamide], the inhibition at 20 µM was found to be 35 ± 0.41% in the test on HeLa, 12.29 ± 0.12% in the test with PC3, 13.9 ± 0.87% in the test with A549 and 29.05 ± 0.08% with HCT116.
With `COc1cc(-c2ccc(/C=C(\C#N)C(=O)NCc3cccc(C(F)(F)F)c3)o2)c(OC)c2ccccc12` [Compound 4g, (E)-2-cyano-3-(5-(1,4-dimethoxynaphthalen-2-yl)furan-2-yl)-N-(3-(trifluoromethyl)benzyl)acrylamide], the inhibition at 20 µM in the test with HeLa turned out to be 16.1 ± 0.17%; in the test with PC3 it was 15.38 ± 0.01%; with A549, 4.87 ± 0.3%; in the test on HCT116 it was 7.69 ± 0.02%.
For `N#C/C(=C\c1ccc(C2=CC(=O)c3ccccc3C2=O)o1)C(=O)N1CCc2ccccc2C1` [Compound 5b, (E)-3-(5-(1,4-dioxo-1,4-dihydronaphthalen-2-yl)furan-2-yl)-2-(1,2,3,4-tetrahydroisoquinoline-2-carbonyl)acrylonitrile], the inhibition at 20 µM with HeLa is 20.5 ± 0.28%; in the test on PC3 it was 17.8 ± 0.33%; in the test on A549, 18.4 ± 0.82%; in the test with HCT116 it was 8.83 ± 0.1%.
As for `COc1cc(-c2ccc(C(=O)NCCCn3ccnc3)o2)c(OC)c2ccccc12` [Compound 8g, N-(3-(1H-imidazol-1-yl)propyl)-5-(1,4-dimethoxynaphthalen-2-yl)furan-2-carboxamide], the inhibition at 20 µM with HeLa is 18.28 ± 0.03%; in the test on PC3, 7.59 ± 0.72%; in the test on A549, 26.89 ± 0.16%; with HCT116 it was 27.46 ± 0.16%.
Consider `COc1cc(-c2ccc(/C=C(\C#N)C(=O)NC3CCN(Cc4ccccc4)CC3)o2)c(OC)c2ccccc12` [Compound 4a, (E)-N-(1-benzylpiperidin-4-yl)-2-cyano-3-(5-(1,4-dimethoxynaphthalen-2-yl)furan-2-yl)acrylamide], for which the inhibition at 20 µM in the test on HeLa is 13.6 ± 0.15%; in the test on PC3, 15.5 ± 0.17%; with A549, 16.3 ± 0.22%; with HCT116, 5.69 ± 0.23%.
In the case of “(E)-2-cyano-3-(5-(1,4-dioxo-1,4-dihydronaphthalen-2-yl)furan-2-yl)-N-(3-(trifluoromethyl)phenyl)acrylamide [Compound 5g]”, in the test with HeLa, the “Inhibition Rate (%) at 20 μM HeLa” value amounted to 27.98 ± 0.36%. Also, the “Inhibition Rate (%) at 20 μM PC3” value in the test with PC3 (20 μM) is 11.20 ± 0.02%. For the same molecule, the “Inhibition Rate (%) at 20 μM A549” value with A549 (20 μM) was determined as 32.35 ± 0.95%. Moreover, the “Inhibition Rate (%) at 20 μM HCT116” value in the test on HCT116 (20 μM) came to 28.25 ± 0.04%.
For the molecule `COc1cc(-c2ccc(/C=C(\C#N)C(=O)N3CCc4ccccc4C3)o2)c(OC)c2ccccc12` [Compound 4b, (E)-3-(5-(1,4-dimethoxynaphthalen-2-yl)furan-2-yl)-2-(1,2,3,4-tetrahydroisoquinoline-2-carbonyl)acrylonitrile], the inhibition at 20 µM in the test with HeLa stood at 11.71 ± 0.04%; in the test on PC3, 3.88 ± 0.13%; with A549 it was 24.2 ± 0.31%; in the test with HCT116, 19.6 ± 0.65%.
Take `COc1cc(-c2ccc(C(=O)NC3CCC(F)(F)CC3)o2)c(OC)c2ccccc12` [Compound 8f, N-(4,4-difluorocyclohexyl)-5-(1,4-dimethoxynaphthalen-2-yl)furan-2-carboxamide]: the inhibition at 20 µM with HeLa amounted to 30.1 ± 0.39%; with PC3, 17.72 ± 0.12%; in the test with A549 it was 28.3 ± 0.33%; in the test on HCT116, 27.19 ± 0.15%.
As for `COc1cc(-c2ccc(/C=C(\C#N)C(=O)NCCc3cccs3)o2)c(OC)c2ccccc12` [Compound 4d, (E)-2-cyano-3-(5-(1,4-dimethoxynaphthalen-2-yl)furan-2-yl)-N-(2-(thiophen-2-yl)ethyl)acrylamide], the inhibition at 20 µM is 11.6 ± 0.79% in the test with HeLa, 7.17 ± 0.31% in the test on PC3, 21.58 ± 0.02% in the test with A549 and 10.8 ± 0.49% in the test on HCT116.
Turning to `N#C/C(=C\c1ccc(C2=CC(=O)c3ccccc3C2=O)o1)C(=O)N1CC2CCCCC2C1` (stereo not drawn) [Compound 5f, (E)-3-(5-(1,4-dioxo-1,4-dihydronaphthalen-2-yl)furan-2-yl)-2-(octahydro-1H-isoindole-2-carbonyl)acrylonitrile], the inhibition at 20 µM with HeLa came to 1.9 ± 0.72%; in the test with PC3 it was 11.13 ± 0.03%; in the test on A549 it was 13.9 ± 0.14%; in the test on HCT116, 3.41 ± 0.26%.

Values taken from PMC9609996, “SAR Study and Molecular Mechanism Investigation of Novel Naphthoquinone-furan-2-cyanoacryloyl Hybrids with Antitumor Activity” (Pharmaceutics, 2022).
